Where a SMILES comes first, the peptide text is derived from it. Bridges are numbered along the chain shown (N, C = ends). [ ]: non-standard residue; d: D form. S5 = C=CCCC[C@](C)(N)C(=O)O
How the values were obtained:
Nur77-PPARγ complex = target: T1, Nur77-PPARγ complex (Homo sapiens, UniProt P22736); test: NanoBiT assay of Nur77-PPARγ complex formation in HEK293T cells; type: cell-based; conditions: 1 × 10^−5 M peptide, 1 h, n = 3
T1 construct: expressed in transfected cells; host or cells: HEK293T
T1 sequence (P22736 whole entry, one chain of several): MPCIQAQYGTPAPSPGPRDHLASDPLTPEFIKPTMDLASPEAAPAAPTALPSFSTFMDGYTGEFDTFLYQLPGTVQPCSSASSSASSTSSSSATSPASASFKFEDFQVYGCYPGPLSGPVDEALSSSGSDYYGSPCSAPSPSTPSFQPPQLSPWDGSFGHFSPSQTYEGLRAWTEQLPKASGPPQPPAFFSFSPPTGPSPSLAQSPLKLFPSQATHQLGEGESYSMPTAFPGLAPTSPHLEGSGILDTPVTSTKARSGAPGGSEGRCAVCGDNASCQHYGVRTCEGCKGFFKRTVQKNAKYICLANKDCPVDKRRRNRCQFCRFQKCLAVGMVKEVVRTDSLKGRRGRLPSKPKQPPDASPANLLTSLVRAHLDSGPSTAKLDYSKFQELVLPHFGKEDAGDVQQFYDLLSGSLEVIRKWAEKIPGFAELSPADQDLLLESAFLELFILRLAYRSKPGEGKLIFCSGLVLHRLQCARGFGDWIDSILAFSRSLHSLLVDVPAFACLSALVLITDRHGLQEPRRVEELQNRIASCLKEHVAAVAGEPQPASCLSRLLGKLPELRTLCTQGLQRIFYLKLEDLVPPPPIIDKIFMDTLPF
Protocol: HEK293T cells were seeded in a poly‐d‐lysine‐coated black 96‐well cell culture plate at 10 000 cells per well in 100 µL culture medium. The next day, the master mix of 100 ng receptor construct containing the PPARγ‐LargeBit and SmallBit‐Nur77 plasmids (w/w, 50 ng:50 ng) was diluted in Opti‐MEM Medium (Gibco, 11058‐021), then P3000 Reagent was added. Meanwhile, 0.15 µL Lipofectamine 3000 reagent (ThermoFisher, L3000015) was added to 5 µL Opti‐MEM Medium. Subsequently, diluted DNA was added to Lipofectamine 3000 reagent (V/V, 1:1) and incubated for 15 min at room temperature. A mixture containing the above plasmids and Lipofectamine 3000 was prepared and added to each well. After 24 h, the cells were treated with 1 × 10^−5 M peptides (TAT, T‐CY14, S‐CY14, and ST‐CY14) or variable concentrations of ST‐CY‐14 (0.1/0.2/0.5/1/2/5/10/20/40 × 10^−6 M) for 1 h. The culture medium was replaced with 90 µL Tyrode's solution (Solarbio, T1420). Then, 10 µL furimazine (5 × 10^−5 M) was added to each well and the luminescence signal was measured every 86 s for 1 h at 37 °C.

MCF7 cells [1] = test: Cell viability assay (CCK-8); type: cell-based, human; conditions: MCF7, 5 × 10^−6 M, 24 h
Protocol: MCF7, MDA‐MB‐231, and MDA‐BoM‐1833 cells (5000 cells/well) were seeded in 96‐well plates and cultured overnight at 37°C and 5% CO2. The cells were then treated with fresh basic medium containing various concentrations (1/2/5/10/20 × 10^−6 M) of compounds. After 24 h of incubation, the cells were incubated with a basic medium containing 10% Cell Counting Kit‐8 (Dojindo, CK‐04) for 2 h. Cell viability was evaluated by measuring the absorbance at 450 nm. The formula used was [(As‐Ab)/(Ac‐Ab)] × 100%, where as represents the absorbance of the drug‐treated group, Ac represents the absorbance of the control group treated with medium, and Ab represents the absorbance of the blank control containing only medium.

MDA-MB-231 cells [2] = test: qPCR of CD36 and FABP4; type: cell-based; conditions: n = 3
MCF7 cells [3] = test: Energy metabolism analysis (Seahorse OCR); type: cell-based, human; conditions: MCF7, 24 h treatment, n = 3
Protocol: (§1) Cell energy metabolism analysis was conducted using a Seahorse cell energy metabolism analyzer (Agilent, USA). In brief, 8000 cells were seeded per well in a 96‐well XF96 plate (Agilent, 103794‐100) and cultured overnight. Subsequently, the cells were treated with various concentrations of peptides for 24 h. To prepare for metabolic stress injections, cartridge plates (Agilent, w15023) were hydrated with H2O for at least 12 h at 37 °C before the assay. 1 h before detection, the medium in each well was replaced with 180 µL XF calibrant solution (Agilent, 100840‐000), Afterward, the cell plate was replaced with 180 µL XF DMEM (Agilent, 103575‐100) with glucose (1 × 10^−2 M) (Agilent, 103577‐100), pyruvate (1 × 10^−3 M) (Agilent, 103578‐100) and glutamine (2 × 10^−3 M) (Agilent, 103579‐100) and the mixture was incubated in a CO2‐free incubator at 37 °C for 1 h. Then, 20 µL basic medium, 22 µL 1.5 × 10^−4 M oligomycin, 25 µL 1.5 × 10^−4 M FCCP, and 27 µL 5 × 10^−5 M ROT/AA (Agilent, 10315‐100) were added to wells A, B, C, and D, respectively, of the cartridge plates. The assay was carried out according to the manufacturer's instructions, and the OCR was reported in picomoles per min. The results were normalized to the cell number determined by the CCK‐8 assay.

MDA-MB-231 cells [4] = test: Energy metabolism analysis (Seahorse OCR); type: cell-based; conditions: MDA-MB-231, 24 h treatment, n = 3
Protocol: as §1

[5] = system: MDA-MB-231-GFP tumor tissue; test: LC/MS targeted lipid metabolome of xenograft tumor tissue; type: in vivo, mouse; conditions: compared with the control group
Protocol: To establish the bone metastasis tumor model, 1×10^5 cells were injected into the left ventricle of each mouse (7–8 weeks old), and surgery was monitored using a cardiac ultrasound instrument. The mice were randomly divided into three groups and treated with PBS (control group, n = 6), 5 mg kg^−1 ST‐CY14 (n = 6), and 10 mg kg^−1 ST‐CY14 (n = 6) Tumor cell metastasis was monitored using an in vivo imaging instrument (IVIS Spectrum, PerkinElmer, USA). by intraperitoneal injection of 20 mg kg^−1 D‐luciferin. The mice were treated with ST‐CY14 via intravenous injection using a 100 µL PBS solution every 2 days starting on the designated day after tumor cell injection. Bone tissue with MDA‐BoM‐1833 cell metastasis was obtained and stained for TRAP. The mice sera were collected and analyzed for BSP and β‐CTx levels using ELISA (Lengton, BPE10823, BPE10438). For the orthotopic xenograft tumor model, 3×10^6 cells were injected into the fourth pair of breast pads on the left side of the mouse (4–5 weeks old). The mice were treated with ST‐CY14 every two days once the tumor volume reached 30–50 mm^3, with the same groups as in the bone metastasis tumor model. […]

For C[C@@H](O)[C@@H]1NC(=O)[C@H](CCCNC(=N)N)NC(=O)[C@H](CCCNC(=N)N)NC(=O)[C@@](C)(NC(=O)[C@H](Cc2ccccc2)NC(=O)CNC(=O)[C@H](CCCCN)NC(=O)[C@H](CS)NC(=O)CNC(=O)[C@H](CCC(=O)O)NC(=O)[C@@H](N)CS)CCCC=CCCC[C@@](C)(C(=O)N[C@@H](CCCNC(=N)N)C(=O)N[C@@H](Cc2ccc(O)cc2)C(=O)N[C@@H](Cc2ccc(O)cc2)C(=O)NCC(=O)N[C@@H](CCCNC(=N)N)C(=O)N[C@@H](CCCCN)C(=O)N[C@@H](CCCCN)C(=O)N[C@@H](CCCNC(=N)N)C(=O)N[C@@H](CCCNC(=N)N)C(=O)N[C@@H](CCC(N)=O)C(=O)N[C@@H](CCCNC(=N)N)C(=O)N[C@@H](CCCNC(=N)N)C(=O)N[C@@H](CCCNC(=N)N)C(N)=O)NC1=O [ST-CY14] (H-CEGCKGF[S5]RRT[S5]RYYGRKKRRQRRR-NH2; staple 8-12), the “Effect on NanoBiT luminescence (Nur77-PPARγ complex)” value (Nur77-PPARγ complex) was “effectively inhibited the formation of the Nur77‐PPARγ complex”, the “Cell viability / proliferation” value (MCF7 cells [1]) was “significantly attenuated breast tumor cell proliferation” and the “CD36 and FABP4 transcription (qPCR)” value (MDA-MB-231 cells [2]) was “dose‐dependently inhibited CD36 and FABP4 expression at the transcriptional level”. The “Oxygen consumption rate (OCR)” value (MCF7 cells [3]) was “significantly reduced”, the “Oxygen consumption rate (OCR)” value (MDA-MB-231 cells [4]) was “significantly reduced” and the “Relative abundance of lipid content (FA, PC, TAG, PE) in tumor tissue” value [5] was “decreased”.

Reference: publication PMC11234460, “In Silico Discovery of Stapled Peptide Inhibitor Targeting the Nur77‐PPARγ Interaction and Its Anti‐Breast‐Cancer Efficacy” (Advanced Science, 2024)
